Laboratory results taken from the supplement of paper PMC10307832.

Columns and labels:
Assay in all cases: relative viability (nuclei count vs DMSO), 5 days (fraction); higher = more cells survive
FG-4592 + Pemetrexed = compound: Cc1nc(C(=O)NCC(=O)O)c(O)c2ccc(Oc3ccccc3)cc12 [FG-4592] + Nc1nc2[nH]cc(CCc3ccc(C(=O)N[C@@H](CCC(=O)O)C(=O)O)cc3)c2c(=O)[nH]1 [Pemetrexed] (partner 0.2 µM)
In short: (§1)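 Lung cancer cell lines in 1536-well plates got either a single drug or a fixed anchor-drug dose together with five library-drug doses (not always all listed) in √10 steps, by pin tool, on the day after seeding. Nuclei were counted after 5 days, and relative viability is the treated-to-vehicle ratio of nuclei counts. Values are medians of duplicate plates.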

IU1-47 + OSI-027 = compound: CC1=CC(=C(N1C2=CC=C(C=C2)Cl)C)C(=O)CN3CCCCC3 [IU1-47] + COc1cccc2cc(-c3nc([C@H]4CC[C@H](C(=O)O)CC4)n4ncnc(N)c34)[nH]c12 [OSI-027] (partner 0.5 µM)
In short: as §1

FG-4592 = compound: Cc1nc(C(=O)NCC(=O)O)c(O)c2ccc(Oc3ccccc3)cc12 [FG-4592]
In short: (§2)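 Only plates meeting two conditions passed: control CV below 25% and at least one doubling. Lung cancer cell lines, kept overnight at 37 °C in 1536-well plates, were pinned with five library-drug doses (not always all listed) √10 apart on vehicle-anchored plates and grown 5 days without medium change. A one-step fix, permeabilisation and Hoechst stain preceded 4× imaging and MetaXpress nuclear counting. Viability equals treated-well nuclei divided by vehicle-well nuclei, as the median over plates.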

IU1-47 = compound: CC1=CC(=C(N1C2=CC=C(C=C2)Cl)C)C(=O)CN3CCCCC3 [IU1-47]
In short: as §2

| Cell Line | relative viability (FG-4592 + Pemetrexed; first compound 0.08 µM) | relative viability (FG-4592 + Pemetrexed; first compound 0.253 µM) | relative viability (FG-4592 + Pemetrexed; first compound 0.8 µM) | relative viability (FG-4592 + Pemetrexed; first compound 2.53 µM) | relative viability (FG-4592 + Pemetrexed; first compound 8 µM) | relative viability (IU1-47 + OSI-027; first compound 0.08 µM) | relative viability (IU1-47 + OSI-027; first compound 0.253 µM) | relative viability (IU1-47 + OSI-027; first compound 0.8 µM) | relative viability (IU1-47 + OSI-027; first compound 2.53 µM) | relative viability (IU1-47 + OSI-027; first compound 8 µM) | relative viability (FG-4592; 0.08 µM) | relative viability (FG-4592; 0.253 µM) | relative viability (FG-4592; 0.8 µM) | relative viability (FG-4592; 2.53 µM) | relative viability (FG-4592; 8 µM) | relative viability (IU1-47; 0.08 µM) | relative viability (IU1-47; 0.253 µM) | relative viability (IU1-47; 0.8 µM) | relative viability (IU1-47; 2.53 µM) | relative viability (IU1-47; 8 µM) |
| --- | --- | --- | --- | --- | --- | --- | --- | --- | --- | --- | --- | --- | --- | --- | --- | --- | --- | --- | --- | --- |
| PC-14 | 0.128 | 0.138 | 0.129 | 0.131 | 0.148 | 0.881 | 0.925 | 1.11 | 0.302 | 0.847 | 1.07 | 0.927 | 0.99 | 0.982 | 0.97 | 1.04 | 1.05 | 1.09 | 0.84 | 0.933 |
| RERF-LC-KJ | 0.466 | 0.472 | 0.481 | 0.486 | 0.498 | 0.596 | 0.586 | 0.565 | 0.36 | 0.567 | 1.03 | 0.922 | 1 | 1.02 | 0.906 | 1.06 | 1.04 | 1.14 | 0.902 | 0.946 |
| SK-LU-1 | 0.949 | 0.842 | 1.05 | 1.06 | 1.05 | 0.4 | 0.32 | 0.309 | 0.362 | 0.323 | 0.882 | 0.748 | 0.898 | 0.899 | 0.879 | 1.14 | 1.17 | 1.05 | 0.98 | 1.06 |
| SK-MES-1 | 0.88 | 0.833 | 0.927 | 0.906 | 0.917 | 0.668 | 0.674 | 0.606 | 0.348 | 0.509 | 0.991 | 0.939 | 0.969 | 0.981 | 0.983 | 1.12 | 1.22 | 1.02 | 1.1 | 1.06 |
| SW 900 |  | 0.48 |  | 0.493 | 0.487 | 0.508 | 0.45 | 0.677 | 0.61 | 0.414 | 0.699 | 0.954 | 0.514 | 0.913 | 1.13 | 0.771 | 0.589 | 0.82 | 0.68 | 0.742 |
| SW 1573 | 0.753 | 0.638 | 0.805 | 0.809 | 0.535 | 0.675 | 0.618 | 0.583 | 0.216 | 0.607 | 0.936 | 0.79 | 0.909 | 0.994 | 0.896 | 1.03 | 1.05 | 0.958 | 0.857 | 0.934 |
